Reference: US20180036314A1, “METHODS AND COMPOSITIONS FOR TREATING PERIPHERAL VASCULAR DISEASE” (Exodos Life Sciences Limited Partnership, priority 2009, published 2018)

What was measured:
[1] = test system: patients with Raynaud's phenomenon; details: cited from earlier work
[2] = test system: vasospastic attacks and peripheral blood flow; details: oral 20 mg 2 or 3 times per week during 4 weeks; compared to pentoxifylline 600 mg b.i.d.; cited from earlier work
[3] = test system: patients with scleroderma and lupus; details: in vivo; cited from earlier work
[4] = test system: patient suffering from Raynaud's phenomenon secondary to chemotherapy; details: single patient; equipotent doses; cited from earlier work
pig skin = experiment: Local cutaneous blood flow in pigs after topical application (laser Doppler); format: in vivo; details: for Local cutaneous blood flow, FLOW (MV), 10 min. after treatment / Local cutaneous blood flow, FLOW (MV), 20 min. after treatment / Local cutaneous blood flow, FLOW (MV), 30 min. after treatment / Local cutaneous blood flow, FLOW (MV), 60 min. after treatment / Local cutaneous blood flow, FLOW (MV), 120 min after treatment / Local cutaneous blood flow, FLOW (MV), 180 min. after treatment: topical
Experimental: A stable depth of sedation was maintained with continuous intravenous methohexital, titrated to a minimal lid reflex and a regular respiratory rate. Throughout the experiment, the animals spontaneously breathed through a “snout-cone” connected to a standard anesthesia machine delivering 100% oxygen. The dorsal surface of the animal was cleaned with tepid water. Ten sites (2×2 cm each) were defined on the dorsal surface of the animal with permanent marker. […] MAP was recorded at the start and end of each Doppler scan. A dose volume of 0.1 mL of vehicle, control, or test article was applied to each site. L-arginine monohydrate and sildenafil citrate were prepared in commercially available Veecogel Cream base formulation (available from PCCA, 9901 South […], Houston, Tex., USA) containing […], Coconut oil, Capryloic Acid, […], Squalane, Boric Acid, Polysorbate 80, Sorbitan Monooleate 80, Simethicone, Butylated hydroxytoluene. Sildenafil citrate 1% was dissolved in propylene glycol 2% and combine with base with constant mixing. L-arginine monohydrate 10% and 1% were dissolved in 2% propylene glycol and combined with the Veecogel described above. No two adjacent sites were administered the same concentration of any control or test article and administration was temporally spaced to allow at least 2 minutes between dosing each site. […] Applications were made in the same order and over the same time span as the baseline blood flow measurements. […] Blood flow at the untreated, control site was measured immediately prior to and immediately after the measurements at the treated sites. These two measurements were averaged to obtain the control blood flow for each interval. Serum levels of local drugs were not measured. Regional differences in blood flow were accounted for by normalizing the measurements of flow made after injection of a test solution to the baseline flow at the site prior to application. Changes in blood flow are expressed as a percent change from control blood flow. Variations in skin blood flow over the course of the experiment were accounted for by normalizing the changes in blood flow at a given site to the changes in blood flow at a control site. Thus, the change in cutaneous blood flow at a treatment site can be determined by the formula: [formula] where Sx is the blood flow at an injected site X min after application, So is the baseline flow at that site prior to application, Cx is the flow at the control site X min after the application, and Co is the blood flow at the control site at the same time that the baseline flow measurements were made.

[5] = test system: hands of normal human volunteers; experiment: Skin temperature recovery of the hand after cold water immersion (infrared camera); format: in vivo; details: topical, acclimation at 25° C.
Experimental: The effects of L-arginine and sidelnafil citrate in the regulation of human blood flow was determined by measuring the rate of skin temperature recovery in the hands of normal human volunteers following a period of cold water immersion. The measurements were performed at room temperature 25° C., for a period of 30 minutes after acclimatization. L-arginine monohydrate and sildenafile citrate were prepared in commercially available Veecogel Cream base formulation containing Krisgel 100™, Coconut oil, Capryloic Acid, Triglicerides, Squalane, Boric Acid, Polysorbate 80, Sorbitan Monooleate 80, Simethicone, Butylated hydroxytoluene. Sildenafil citrate 1% was dissolved in propylene glycol 2% and combine with base with constant mixing. L-arginine monohydrate 10% and 1% were dissolve in 2% propylene glycol and combine with the Veecogel described above.
Skin temperature was measured with an infrared camera FLIR T300 (FLIR Systems, Inc., Boston, Mass., USA). Changes in skin temperature were determined after cooling of hand for 2 minutes in ice water by analyzing individual thermal images with FLIR Quick Report software. The effects of test drugs were determined following application of substance to the cooled hand. Thermal images of a patient receiving the control treatment and of a patient receiving the combination treatment were taken at 0, 5, and 15 minutes after treatment, and are shown in FIGS. 1A and 1B, respectively.

[6] = in vivo; cited from earlier work
[7] = test system: patients with Raynaud's phenomenon secondary to scleroderma; details: in vivo; cited from earlier work
[8] = test system: primary Raynaud's symptoms; details: in vivo; cited from earlier work
[9] = test system: patients with secondary Raynaud's phenomenon; details: oral 50 mg twice daily for 4 weeks, cited from earlier work

Which “Effects on blood flow parameters” value ([1]; comparator arm) does the source give for `Cc1c(C)c2c(c(C)c1O)CC[C@@](C)(CCC[C@H](C)CCC[C@H](C)CCCC(C)C)O2` [α-tocopherol] here?
The value was “no effects on blood flow parameters”.

For `CN1CC(=O)N2[C@H](c3ccc4c(c3)OCO4)c3[nH]c4ccccc4c3C[C@@H]2C1=O` [tadalafil, (6R,12aR)-2,3,6,7,12,12a-hexahydro-2-methyl-6-(3,4-methylenedioxyphenyl)-pyrazino[2′,1′:6,1]pyrido[3,4-b]indole-1,4-dione], which “Peripheral blood flow at the end of the treatment period” value [2] is on record?
The value was “increased peripheral blood flow”.

And the “Vasospastic attack frequency and duration” value [2]?
The value was “significant reduction in vasospastic attack frequency and duration”.

What about the “Raynaud's symptoms” value [3] of the same compound?
Its value is “reduced Raynaud's symptoms”.

And the “Response of Raynaud's symptoms and capillary blood flow” value [4]?
The value was “improved Raynaud's symptoms and increased capillary blood flow”.

Which “Effect on dermal blood flow” value (pig skin; topical application) does the source give for `N=C(N)NCCC[C@H](N)C(=O)O` [Arginine, L-arginine] here?
The value was “increased dermal blood flow in a dose and time dependent manner”.

And the “Local cutaneous blood flow, FLOW (MV), 10 min. after treatment” value (pig skin; dose 1%)?
The value was 0.41 MV.

And the “Local cutaneous blood flow, FLOW (MV), 20 min. after treatment” value (pig skin; dose 1%)?
Its value is 12.47 MV.

What about the “Local cutaneous blood flow, FLOW (MV), 30 min. after treatment” value (pig skin; dose 1%) of the same compound?
Its value is 5.55 MV.

What about the “Local cutaneous blood flow, FLOW (MV), 60 min. after treatment” value (pig skin; dose 1%) of the same compound?
The value was 2.71 MV.

What about the “Local cutaneous blood flow, FLOW (MV), 120 min after treatment” value (pig skin; dose 1%) of the same compound?
The value was 7.91 MV.

And the “Local cutaneous blood flow, FLOW (MV), 180 min. after treatment” value (pig skin; dose 1%)?
Its value is 10.26 MV.

What about the “Local cutaneous blood flow, FLOW (MV), 10 min. after treatment” value (pig skin; dose 10%) of the same compound?
Its value is 19.82 MV.

What about the “Local cutaneous blood flow, FLOW (MV), 20 min. after treatment” value (pig skin; dose 10%) of the same compound?
Its value is 21.88 MV.

And the “Local cutaneous blood flow, FLOW (MV), 30 min. after treatment” value (pig skin; dose 10%)?
The value was 22.07 MV.

What about the “Local cutaneous blood flow, FLOW (MV), 60 min. after treatment” value (pig skin; dose 10%) of the same compound?
The value was 38.45 MV.

And the “Local cutaneous blood flow, FLOW (MV), 120 min after treatment” value (pig skin; dose 10%)?
Its value is 40.21 MV.

And the “Local cutaneous blood flow, FLOW (MV), 180 min. after treatment” value (pig skin; dose 10%)?
Its value is 38.72 MV.

And the “Change in skin temperature from baseline, 1 min.” value ([5]; dose 10% W/v)?
The value was 2.5 °C.

What about the “Change in skin temperature from baseline, 2 min.” value ([5]; dose 10% W/v) of the same compound?
Its value is 4 °C.

And the “Change in skin temperature from baseline, 5 min.” value ([5]; dose 10% W/v)?
The value was 5 °C.

And the “Change in skin temperature from baseline, 10 min.” value ([5]; dose 10% W/v)?
Its value is 9.5 °C.

What about the “Change in skin temperature from baseline, 15 min.” value ([5]; dose 10% W/v) of the same compound?
The value was 11.5 °C.

What does the source list for `CCCc1nn(C)c2c(=O)[nH]c(-c3cc(S(=O)(=O)N4CCN(C)CC4)ccc3OCC)nc12` [Sildenafil, 5-[2-ethoxy-5-(4-methyl-1-piperazinylsulphonyl)phenyl]-1-methyl-3-n-propyl-1,6-dihydro-7H-pyrazolo[4,3-d]pyrimidin-7-one]?
Effect on blood flow (pig skin; topical concentration of 1% in Veecogel cream base): increased blood flow in the areas of application; Local cutaneous blood flow, FLOW (MV), 10 min. after treatment (pig skin; dose 1%): −10.31 MV; Local cutaneous blood flow, FLOW (MV), 20 min. after treatment (pig skin; dose 1%): −3.51 MV; Local cutaneous blood flow, FLOW (MV), 30 min. after treatment (pig skin; dose 1%): −1.57 MV; Local cutaneous blood flow, FLOW (MV), 60 min. after treatment (pig skin; dose 1%): 1.58 MV; Local cutaneous blood flow, FLOW (MV), 120 min after treatment (pig skin; dose 1%): 3.15 MV; Local cutaneous blood flow, FLOW (MV), 180 min. after treatment (pig skin; dose 1%): 15.73 MV; Half-life [6]: 3.8 h; Increase in forearm blood flow ([1]; oral, after treatment): 75%; Change in skin temperature from baseline, 1 min. ([5]; dose 1% W/v): 1 °C; Change in skin temperature from baseline, 2 min. ([5]; dose 1% W/v): 4 °C; Change in skin temperature from baseline, 5 min. ([5]; dose 1% W/v): 6.5 °C; Change in skin temperature from baseline, 10 min. ([5]; dose 1% W/v): 8.5 °C; Change in skin temperature from baseline, 15 min. ([5]; dose 1% W/v): 12.5 °C; Patients with a reduction in pain and frequency of Raynaud's phenomenon attacks [7]: 80%; Patients with digital ulcer healing (of those with digital ulcers at baseline) [7]: 75%; Response of Raynaud's symptoms and capillary blood flow [4]: did not respond; Primary Raynaud's symptoms [8]: failed to improve primary Raynaud's symptoms; Digital ulcers in patients who had digital ulcers at baseline [9]: ulcer healing was observed; Increase in mean capillary flow velocity [9]: more than 4 fold; Frequency and duration of Raynaud's attacks ([9]; compared to placebo): reduction in the frequency and duration of Raynaud's attacks compared to placebo
